# From US20050170020A1, “Using organic and / or inorganic potassium and its salts to treat autoimmune and other health disorders and methods of administering the same” (priority 2003, published 2005)
# Test system: psoriasis affected scalp area
# Test: Phenylephrine applied on psoriasis affected scalp area
# Type: in vivo, human
# Details: topical, inventor
# Description: From above it is clear that by reducing the body water loss i.e. by vasoconstriction we can control the psoriasis. To check this theory inventor has applied Phenylephrine which is used for nasal decongestant, on psoriasis affected scalp area. Phenylephrine is an Adrenergic Agent that mimics the sympathetic neurotransmitter norepinephrine (NE). […] This worked by way of reducing water loss of psoriatic skin by vasoconstriction.
smiles,measurement,value
CNC[C@H](O)c1cccc(O)c1 [Phenylephrine],Response of psoriatic skin,lesions reduced
